Among the data in BindingDB's records for patent US12110286 (Cancer Research Technology, 2024) are IC50 values, retold here.

For the test, the target named is B-cell lymphoma 6 protein (Homo sapiens, UniProt P41182). Nature of the test: HTRF In Vitro Assay. The method, then:
The % inhibition at each concentration was calculated by normalising FRET ratio to the appropriate high (DMSO with all reagents) and low (DMSO without BCL6) controls.
A general note: Time-resolved FRET reads energy transfer from a long-lived donor to a nearby acceptor.

The IC50 is the concentration needed to halve the response being measured. Higher therefore signals a need for much substance. As to `Cn1c(=O)n(CCC(C)(C)O)c2cc(Nc3nc(N4CCC(Cn5cccn5)CC4)ncc3Cl)ccc21` [US12110286, Example 35zb], the half-inhibitory concentration (IC50) was determined as 0.324 µM.
